{
  "source": "patent US20020110808A1",
  "about": "“Toxicant-induced differential gene expression” (priority 2000, published 2002)",
  "key": {"HepG2 cells [1]": {"test_system": "HepG2 cells", "experiment": "Annexin V assay for apoptosis", "assay_type": "cell-based, human", "details": "20 mM acetaminophen, 16 mM caffeine, 100 mM thioacetamide, by 24 hr", "method": "Translocation of phosphatidyl serine to the cell membrane was measured by affinity binding to annexin V using the Apotest Biotin kit from NeXins Research B.V. (The Netherlands). HepG2 cells were cultured as above and plated into Cytostar-T scintillating microplates (Amersham) at 10^6 cells/well and grown for 3 days prior to treatment as above. Following treatment, 50 μl/well of 4 μg/ml annexin V-biotin in 2× Ca^2+ binding buffer was added. Wells with no annexin V-biotin were included as background controls. Following incubation for 20 min at room temperature, 50 μl/well of 0.5 μCi [^35S] streptavidin (Amersham) in 2× Ca^2+ binding buffer was added and incubated for 2 hrs at room temperature with gentle shaking. Plates were spun down at 1,100 rpm for 8 min and read on a Packard TopCount instrument (see e.g., Vermes et al., J. Immunol. Methods 185:81-93 (1995))."}, "HepG2 cells [2]": {"test_system": "HepG2 cells", "experiment": "Caspase-3 assay for apoptosis", "assay_type": "cell-based, human", "details": "100 mM thioacetamide, 24 hr", "method": "Caspase-3 assay for apoptosis. Activation of caspase-3, an intracellular cysteine protease, was measured by cleavage of a caspase-specific peptide using the Caspase-3 Colorimetric Assay kit from R&D Systems. HepG2 cells were cultured and treated as above in T-75 tissue culture flasks. Following treatment, cells were scraped off and spun down. The assay was performed according to the kit instructions using 350 μl/flask of lysis buffer."}},
  "data": [
    {"compound": "CC(=N)S", "note": "[thioacetamide]", "values": [
      {"measurement": "Apoptosis, annexin V assay", "setting": "HepG2 cells [1]", "result": "induces the greatest response"},
      {"measurement": "Caspase-3 activation", "setting": "HepG2 cells [2]", "result": "significant activation"}
    ]}
  ]
}
